“And” between values parts separate entries of the source, which are not always exact repeats. Equal values may be shown once. Read-outs that look alike come from different tables or passages of the source.
Key:
[1] = Baboon PET study: plasma analysis / input function of parent compound; assay type: in vivo; details: baboons; for Vbol (initial distribution volume of parent compound) / Clearance of parent compound: i.v.; for Vbol (initial distribution volume of parent compound) / Clearance / Clearance of parent compound: mean ± SD of four experiments; for Clearance: male, monkey, arterial plasma, iv
Experimental: PET imaging protocol: PET experiments (n=20) were performed at Columbia University. Two adult male baboons (baboon A and B) were studied twice with each of the 5 radioligands (4 experiments per radioligand). All experiments took place within a 9-month period. Baboons A and B were 31 kg and 21 kg in weight at the beginning of the experimental period and 28 and 22 kg at the end, respectively.
Experiments were performed according to protocols approved by the Columbia-Presbyterian Medical Center Institutional Animal Care and Use Committee. […] Vital signs were monitored every 10 minutes and the temperature was kept constant at 37° C. with heated water blankets. An i.v. perfusion line was used for hydration and injection of radioligands and nonradioactive drugs. A catheter was inserted in a femoral artery for arterial blood sampling. Head was positioned at the center of the field of view as defined by imbedded laser lines. PET imaging was performed with the ECAT EXACT HR+PET scanner (Siemens/CTI, Knoxville, Tenn.). […] A 15 minute transmission scan was obtained prior to radioligand injection for attenuation correction. Activity was injected i.v. over 30 seconds.
Input function measurements: Arterial samples were collected every 5 seconds with an automated system for the first two minutes and manually thereafter at various intervals. A total of 28 samples were collected.
Selected plasma samples (n=6 per study, collected at 2, 4, 12, 30, 60 and 90 minutes after radioligand administration) were further processed by extraction with methanol (MeOH) followed by HPLC analysis to measure the fraction of plasma activity representing unmetabolized parent compound. The parent fraction was measured as follows: plasma (0.5 mL) was pipetted into a centrifuge tube containing MeOH (1.0 mL). […] The liquid phase was separated from the precipitate. Activity in 0.1 mL of the liquid phase was counted and the rest was injected onto the HPLC. The HPLC eluate was fraction-collected in 6 counting tubes (4.0 mL each). The HPLC system consisted of a Waters 510 isocratic pump, a Rheodyne injector equipped with a 2 mL sample loop, a C18 analytical column (Phenomenex ODS-prep, 10 μm, 4.6×250 mm), a Bioscan Flow Cell gamma detector (Bioscan, Washington, D.C.), and a fraction collector. The column was eluted with a mixture of acetonitrile and aqueous 0.1 M ammonium formate (proportion depending on the tracer being analyzed) at a flow rate of 2 mL/minute. Before plasma sample analysis, the retention time of the parent tracer was established by injection of a few μCi of the tracer and detection of the peak using the Bioscan gamma detector.
The parent fraction was calculated as the ratio of activity in the fractions containing the parent to that of the total activity collected. A biexponential function was fitted to the six measured parent fractions, and used to interpolate values between and after the measurements. […] The input function was then calculated as the product of total counts and interpolated fraction parent at each time point. The measured input function values were fitted to a sum of three exponentials, and the fitted values were used as input for the kinetic analyses. […] The initial distribution volume (Vbol, L) was calculated as the ratio of injected dose to peak plasma concentration.

[2] = Plasma free fraction (f1) and filter retention by ultrafiltration; assay type: in vitro ADME, baboon; details: mean ± SD of four experiments; for Filter retention: activity remaining on filter, radioligand dissolved in saline; for fraction unbound at 20 min: monkey
Experimental: Plasma and ultrafiltrate activities were counted, and f1 was calculated as the ratio of ultrafiltrate activity to total plasma activity. Triplicate aliquots of the radioligand in pH 7.4 Tris buffer were also processed to determine the filter retention of free tracer.

SERT [3] = molecular target: T1, SERT (Homo sapiens, UniProt P31645); details: cited from earlier work
T1 construct: consistent with values previously measured in six healthy humans (Parsey et al., 2000); host or cells: living human brain (PET, values quoted from Parsey et al. 2000, Ginovart et al. 2001)

[4] = humans, cited from earlier work; for Parent fraction in plasma at 30 minutes: literature
SERT [5] = details: literature; cited from earlier work
[6] = Biodistribution of labeled radioligands in male Sprague-Dawley rats; assay type: in vivo; details: mean ± SD, n = 3
How it was run: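 C-11-labeled compounds given to male Sprague-Dawley rats; cerebellum, hippocampus, striatum, frontal cortex, thalamus, hypothalamus, blood and tail excised, weighed and gamma-counted. Decay- and tail-corrected activity expressed as % injected dose against C-11 standards from the injection solution, and as % ID/g from tissue weights.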

[7] = Experiment 5: plasma clearance of ^11C and ^18F labeled AFM, AFA, AFE in one baboon; assay type: in vivo; details: one adult male baboon, n = 1 to 4 scans
Experimental: General scanning methods were as described in Huang et al. (2002). Arterial input function was measured and corrected for metabolites.

SERT [8] = assay: Experiment 5: PET brain imaging of ^11C and ^18F labeled AFM, AFA, AFE in one baboon; assay type: in vivo; details: one adult male baboon, n = 1 to 4 scans, two-compartment model
How it was run: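 Baboon PET with metabolite-corrected arterial input function, fitted to a two-compartment model to give regional VT (mL/g). Cerebellum VT was taken as nonspecific distribution. V3″ = ROI VT / cerebellum VT − 1.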

SERT [9] = details: same baboon, one tissue compartment model
Experimental: The animal was then injected with [^18F]AFM (2.60 mCi, 425 Ci/mmol, 1.51 μg) and scanned for 90 minutes. Analysis of the input function and brain uptake was performed as described in the previous section. […] Arterial activity was corrected for parent fraction to form the input function.
Data were analyzed with a one tissue compartment model.

[10] = male, baboon plasma, ultrafiltration

T1 sequence (P31645 whole entry): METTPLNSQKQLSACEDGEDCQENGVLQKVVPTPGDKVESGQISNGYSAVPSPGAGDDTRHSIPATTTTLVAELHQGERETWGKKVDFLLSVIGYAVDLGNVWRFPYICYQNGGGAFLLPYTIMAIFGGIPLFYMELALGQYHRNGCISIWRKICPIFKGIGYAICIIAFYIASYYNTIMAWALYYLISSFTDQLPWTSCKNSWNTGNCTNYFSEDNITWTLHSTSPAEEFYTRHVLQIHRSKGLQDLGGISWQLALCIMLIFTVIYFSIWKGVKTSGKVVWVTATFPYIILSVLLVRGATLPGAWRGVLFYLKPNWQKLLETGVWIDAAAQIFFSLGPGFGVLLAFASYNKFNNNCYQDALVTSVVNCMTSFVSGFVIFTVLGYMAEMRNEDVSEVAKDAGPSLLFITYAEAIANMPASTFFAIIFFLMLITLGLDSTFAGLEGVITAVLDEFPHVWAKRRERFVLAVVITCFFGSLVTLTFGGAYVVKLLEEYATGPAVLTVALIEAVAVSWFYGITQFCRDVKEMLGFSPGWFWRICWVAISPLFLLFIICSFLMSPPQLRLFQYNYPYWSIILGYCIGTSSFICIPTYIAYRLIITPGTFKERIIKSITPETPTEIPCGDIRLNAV

Structure (SMILES): CN(C)Cc1ccccc1Sc1ccc(Br)cc1N [[^11C]DAPA]
- Vbol (initial distribution volume of parent compound) [1]: 8.5 ± 1.8 L
- Clearance [1]: 967 mL/min
- Filter retention [2]: 77.9 ± 6.6%
- fraction unbound at 20 min [2, 10]: 0.018 ± 0.005

Structure (SMILES): CN(C)Cc1ccccc1Sc1ccc(C#N)cc1N [[^11C]DASB]
- Parent fraction in plasma at 30 minutes [1]: 20±1%
- Vbol (initial distribution volume of parent compound) [1]: 12.6 ± 2.2 L
- Clearance [1]: 1400 mL/min
- Filter retention [2]: 19.2 ± 4.7%
- fraction unbound at 20 minutes [2, 10]: 0.135 ± 0.017
- Data acquisition required to derive stable VT values in all regions (SERT [3]; humans (Ginovart et al., 2001)): no more than 80 minutes
- V3″ occipital cortex (SERT [3]; humans, literature): 0.51±0.09
- VT CER (cerebellum distribution volume) (SERT [3]; humans, literature): 11.8 ± 1.5 mL/g
- Parent fraction in plasma at 30 minutes [4]: 40±7%
- f1 (plasma free fraction) ([4]; n=5 (Ginovart et al., 2001)): 11.0±1.2%
- Kd (SERT [5]): 1.1 nM

Structure (SMILES): [11CH3]Sc1ccc([C@H]2CN3CCC[C@H]3c3ccccc32)cc1 [[^11C]McN 5652]
- Parent fraction in plasma at 30 minutes [1]: 28±13%
- Clearance of parent compound [1]: 58 ± 13 L/h
- Vbol (initial distribution volume of parent compound) [1]: 5.9 ± 1.8 L
- V3″ medial prefrontal cortex (SERT [3]; humans (Parsey et al., 2000)): 0.08
- V3″ cingulate cortex (SERT [3]; humans, literature): 0.21
- V3″ hippocampus (SERT [3]; humans, literature): 0.49
- V3″ midbrain (SERT [3]; humans, literature): 1.63
- V3″ occipital cortex (SERT [3]; humans, literature): 0.17
- V3″ striatum (SERT [3]; humans, literature): 1.03
- V3″ temporal cortex (SERT [3]; humans, literature): 0.22
- V3″ thalamus (SERT [3]; humans, literature): 0.92
- VT CER (cerebellum distribution volume) (SERT [3]; humans, literature): 17.8 ± 1.9 mL/g and 11.9 ± 3.3 mL/g
- Data acquisition required for time-independent / stable VT or BP estimates (SERT [3]; humans, regions with high SERT density such as the midbrain (Parsey et al., 2000)): at least 120 minutes
- Parent fraction in plasma at 30 minutes [4]: 59±10%

Structure (SMILES): CN(C)Cc1ccccc1Sc1ccc(I)cc1N [[^11C]ADAM]
- Vbol (initial distribution volume of parent compound) [1]: 8.1 ± 3.1 L
- Clearance [1]: 1120 mL/min
- Filter retention [2]: 88.2 ± 5.2%
- fraction unbound at 20 min [2, 10]: 0.009 ± 0.007

Structure (SMILES): CN([11CH3])Cc1ccccc1Sc1ccc(CF)cc1N [[^11C]AFM, [^11C]2-[2-(Dimethylaminomethyl)phenylthio]-5-fluoromethylphenylamine]
- % ID/g Blood ([6]; 10 min post-injection): 0.37 ± 0.28 % ID/g
- % ID/g Cerebellum ([6]; 10 min post-injection): 0.40 ± 0.06 % ID/g
- % ID/g Frontal Ctx. ([6]; 10 min post-injection): 0.99 ± 0.25 % ID/g
- % ID/g Hippocamp. ([6]; 10 min post-injection): 0.59 ± 0.14 % ID/g
- % ID/g Hypothal. ([6]; 10 min post-injection): 0.75 ± 0.19 % ID/g
- % ID/g Striatum ([6]; 10 min post-injection): 0.72 ± 0.17 % ID/g
- % ID/g Thalamus ([6]; 10 min post-injection): 0.79 ± 0.15 % ID/g
- % ID/g Blood ([6]; 30 min post-injection): 0.28 ± 0.01 % ID/g
- % ID/g Cerebellum ([6]; 30 min post-injection): 0.41 ± 0.11 % ID/g
- % ID/g Frontal Ctx. ([6]; 30 min post-injection): 1.31 ± 0.28 % ID/g
- % ID/g Hippocamp. ([6]; 30 min post-injection): 0.95 ± 0.29 % ID/g
- % ID/g Hypothal. ([6]; 30 min post-injection): 1.37 ± 0.48 % ID/g
- % ID/g Striatum ([6]; 30 min post-injection): 1.12 ± 0.21 % ID/g
- % ID/g Thalamus ([6]; 30 min post-injection): 1.18 ± 0.30 % ID/g
- % ID/g Blood ([6]; 60 min post-injection): 0.19 ± 0.03 % ID/g
- % ID/g Cerebellum ([6]; 60 min post-injection): 0.21 ± 0.04 % ID/g
- % ID/g Frontal Ctx. ([6]; 60 min post-injection): 1.37 ± 0.10 % ID/g
- % ID/g Hippocamp. ([6]; 60 min post-injection): 0.84 ± 0.10 % ID/g
- % ID/g Hypothal. ([6]; 60 min post-injection): 1.27 ± 0.16 % ID/g
- % ID/g Striatum ([6]; 60 min post-injection): 1.02 ± 0.15 % ID/g
- % ID/g Thalamus ([6]; 60 min post-injection): 1.29 ± 0.22 % ID/g
- Clearance of parent compound [1]: 90 ± 46 L/h
- Vbol (initial distribution volume of parent compound) [1]: 17.6 ± 1.3 L
- Filter retention [2]: 19.3 ± 4.1%
- f1 (plasma free fraction) ([2]; baboon plasma, ultrafiltration): 9.6 ± 0.5%
- Clearance [7]: 47 ± 11 L/h
- Cerebellum V (nonspecific distribution volume) (SERT [8]): 32 ± 6 mL/g
- Thalamus V3″ (SERT [9]): 2.26

Reference: patent US20110097274A1, “Carbon-11 and fluorine-18 labeled radioligands for positron emission tomography (PET) imaging for the brain serotonin transporters” (priority 2002, published 2011)
